Target: T1, human VR1 receptors (Homo sapiens, UniProt Q8NER1)
T1 construct: host or cells: cells that express human VR1 receptors (cell type not specified)
Assay: Human VR1 antagonist assay (Ca2+ imaging)
Assay type: cell-based
Conditions: Ca2+ imaging (fura-2/AM) in cells highly expressing human VR1; agonist stimulation
From the text: Human VR1 Antagonist Assay
VR1 antagonistic activity can be determined by the Ca^2+ imaging assay using human VR1 highly expressing cells. The cells that highly express human VR1 receptors are obtainable from several different conventional methods. The one standard method is cloning from human Dorsal Root Ganglion (DRG) or kidney according to the methods such as described in the journal article; Nature, 389, pp 816-824, 1997. Alternatively VR1 receptors highly expressing human keratinocytes are also known and published in the journal article (Biochemical and Biophysical Research Communications, 291, pp 124-129, 2002). […] Furthermore, the method to up regulate human VR1 gene, which is usually a silent gene or don't produce detectable level of VR1 receptors, is also available to obtain propriety cells. Such genetic modification method was described in detail; Nat. Biotechnol., 19, pp 440-445, 2001.
The cells that express human VR1 receptors were maintained in culture flask at 37° C. in an environment containing 5% CO2 until use in the assay. The intracellular Ca^2+ imaging assay to determine VR1 antagonistic activities were done by following procedures.
The culture medium was removed from the flask and fura-2/AM fluorescent calcium indicator was added to the flask at a concentration of 5 μM in the medium. The flask was placed in CO2 incubator and incubated for 1 hour. Then the cells expressing the human VR1 receptors were detached from the flask follow by washing with phosphate buffer saline, PBS(−) and re-suspended in assay buffer. The 80 μl of aliquot of cell suspension (3.75×10^5 cells/ml) was added to the assay plate and the cells were spun down by centrifuge (950 rpm, 20° C., 3 minutes).
The compounds of the examples were tested in the Human VR1 antagonist assay described above.
Capsaicin Stimulation Assay
The capsaicin-induced changes in the intracellular calcium concentration were monitored using FDSS 6000 (Hamamatsu Photonics, Japan), a fluorometric imaging system. The cell suspension in Krebs-Ringer HEPES (KRH) buffer (115 mM NaCl, 5.4 mM KCl, 1 mM MgSO4, 1.8 mM CaCl2, 11 mM D-Glucose, 25 mM HEPES, 0.96 mM Na2HPO4, pH 7.3) were pre-incubated with varying concentrations of the test compounds or KRH buffer (buffer control) for 15 minutes at room temperature under the dark condition. Then capsaicin solution, which gives 300 nM in assay mixture, was automatically added to the assay plate by the FDSS 6000.
The Acid-induced changes in the intracellular calcium concentration were monitored using FDSS 6000 (Hamamatsu Photonics, Japan), a fluorometric imaging system. The cell suspension in resting buffer (HBSS supplemented with 10 mM HEPES, pH 7.4) were pre-incubated with varying concentrations of the test compounds or resting buffer (buffer control) for 15 minutes at room temperature under the dark condition. The cells were automatically added the stimulating solution (HBSS supplemented with MES, final assay buffer pH5.8) by the FDSS 6000.
Determination of Antagonist Activity
The monitoring of the changes in the fluorescence signals (λex=340 nm/380 nm, λem=510-520 nm) was initiated at 1 minute prior to the addition of capsaicin solution or acidic buffer and continued for 5 minute.

T1 sequence (Q8NER1 whole entry): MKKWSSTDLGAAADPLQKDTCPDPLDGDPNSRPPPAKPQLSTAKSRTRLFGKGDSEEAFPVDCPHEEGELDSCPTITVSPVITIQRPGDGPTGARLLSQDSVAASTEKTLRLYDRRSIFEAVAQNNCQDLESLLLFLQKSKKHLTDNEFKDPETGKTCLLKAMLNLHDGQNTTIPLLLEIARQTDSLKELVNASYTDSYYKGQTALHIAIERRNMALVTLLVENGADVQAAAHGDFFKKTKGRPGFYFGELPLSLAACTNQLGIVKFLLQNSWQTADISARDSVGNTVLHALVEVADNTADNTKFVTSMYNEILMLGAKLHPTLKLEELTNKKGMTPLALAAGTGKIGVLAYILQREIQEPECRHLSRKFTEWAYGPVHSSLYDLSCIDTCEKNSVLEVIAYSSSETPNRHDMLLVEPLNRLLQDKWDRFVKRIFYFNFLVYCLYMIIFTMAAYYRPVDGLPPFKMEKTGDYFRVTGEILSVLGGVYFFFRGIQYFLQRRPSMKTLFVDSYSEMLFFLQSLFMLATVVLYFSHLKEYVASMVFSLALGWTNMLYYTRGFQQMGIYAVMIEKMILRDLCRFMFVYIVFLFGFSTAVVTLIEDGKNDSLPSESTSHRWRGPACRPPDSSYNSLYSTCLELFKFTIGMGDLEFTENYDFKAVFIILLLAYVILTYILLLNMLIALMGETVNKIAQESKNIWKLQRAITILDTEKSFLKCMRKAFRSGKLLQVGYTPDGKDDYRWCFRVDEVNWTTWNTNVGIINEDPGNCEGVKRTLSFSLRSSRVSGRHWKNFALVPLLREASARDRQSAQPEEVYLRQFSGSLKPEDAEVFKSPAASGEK

Compound | IC50 [nM]
Cc1ccc(C(C)NC(=O)c2ccc3cc(C(C)(C)C)ccc3c2)cn1 (centres unmarked) [Example A2, 6-tert-butyl-N-[1-(6-methylpyridin-3-yl)ethyl]-2-naphthamide] | 67.8
Cc1cc(CNC(=O)c2ccc3cc(C(C)(C)C)ccc3c2)c(C)cn1 [Example C4, 6-tert-butyl-N-[(2,5-dimethylpyridin-4-yl)methyl]-2-naphthamide] | 32.5
Cc1cc(CNC(=O)c2ccc3cc(C(C)(C)C)ccc3n2)c(C)cn1 [Example D2] | 85.1
Cc1cc(CNC(=O)c2ccc3cc(C(C)(C)C)ccc3n2)ccn1 [Example D1] | 231
C[C@@H](NC(=O)c1ccc2cc(C(C)(C)C)ccc2c1)c1ccncc1 [Example C1, 6-tert-butyl-N-[(1R)-1-pyridin-4-ylethyl]-2-naphthamide] | 451
Cc1ccc([C@@H](C)NC(=O)c2ccc3cc(C(C)(C)C)ccc3c2)cn1 [Example A3, 6-tert-butyl-N-[(1R)-1-(6-methylpyridin-3-yl)ethyl]-2-naphthamide] | 96
C[C@@H](NC(=O)c1ccc2cc(C(C)(C)C)ccc2c1)c1ccc(CO)nc1 [Example A5, 6-tert-butyl-N-{(1R)-1-[6-(hydroxymethyl)pyridin-3-yl]ethyl}-2-naphthamide] | 127
COc1cc(CNC(=O)c2ccc3cc(C(C)(C)C)ccc3c2)ccn1 [Example C2, 6-tert-butyl-N-[(2-methoxypyridin-4-yl)methyl]-2-naphthamide] | 203
CC[C@@H](NC(=O)c1ccc2cc(C(C)(C)C)ccc2c1)c1ccc(C)nc1 [Example A6, (R)-6-tert-butyl-N-(1-(6-methylpyridin-3-yl)propyl)-2-naphthamide] | 261
Cc1ccc([C@@H](C)NC(=O)c2ccc3cc(C(C)(C)C)ccc3n2)cn1 [Example B1, 6-tert-butyl-N-[(1R)-1-(6-methylpyridin-3-yl)ethyl]quinoline-2-carboxamide] | 426
Cc1ncc([C@@H](C)NC(=O)c2ccc3cc(C(C)(C)C)ccc3c2)cc1Cl [Example A4, 6-tert-butyl-N-[(1R)-1-(5-chloro-6-methylpyridin-3-yl)ethyl]-2-naphthamide] | 271
Cc1ccc(CNC(=O)c2ccc3cc(C(C)(C)C)ccc3c2)cn1 [Example A1, 6-tert-butyl-N-[(6-methylpyridin-3-yl)methyl]-2-naphthamide] | 250
Oc1cc2c(cc1O)CN(C(=S)NCCc1ccc(Cl)cc1)CCC2 [Capsazepine, reference compound] | 237 to 455
Cc1cc([C@@H](C)NC(=O)c2ccc3cc(C(C)(C)C)ccc3c2)ccn1 [Example C3, 6-tert-butyl-N-[(1R)-1-(2-methylpyridin-4-yl)ethyl]-2-naphthamide] | 77.5
